Measurements: article PMC11882969 (Nature Communications, 2025)
“And” between values parts separate entries of the source, which are not always exact repeats. Identical values can stand only once.

How the values were obtained:
[1] = target: T1, CB1 (rCB1) (Rattus norvegicus, UniProt P20272); assay: Single-point radioligand displacement screen; type: binding; conditions: 10 µM, 1 µM or 300 nM by cell colour (not visible)
[2] = target: T2, hCB1 (Homo sapiens, UniProt P21554); assay: Lance Ultra cAMP accumulation assay, CHO cells; type: cell-based; set-up: expressed in transfected cells; conditions: for normalised cAMP response, concentration-response (Figure2f), replicate values: log[Compound;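 on all read-outs here: human CB1R stably expressed in CHO cells, ligands co-incubated with forskolin at room temperature, read-out is lowering of forskolin-stimulated cAMP accumulation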
T2 sequence (P21554 whole entry): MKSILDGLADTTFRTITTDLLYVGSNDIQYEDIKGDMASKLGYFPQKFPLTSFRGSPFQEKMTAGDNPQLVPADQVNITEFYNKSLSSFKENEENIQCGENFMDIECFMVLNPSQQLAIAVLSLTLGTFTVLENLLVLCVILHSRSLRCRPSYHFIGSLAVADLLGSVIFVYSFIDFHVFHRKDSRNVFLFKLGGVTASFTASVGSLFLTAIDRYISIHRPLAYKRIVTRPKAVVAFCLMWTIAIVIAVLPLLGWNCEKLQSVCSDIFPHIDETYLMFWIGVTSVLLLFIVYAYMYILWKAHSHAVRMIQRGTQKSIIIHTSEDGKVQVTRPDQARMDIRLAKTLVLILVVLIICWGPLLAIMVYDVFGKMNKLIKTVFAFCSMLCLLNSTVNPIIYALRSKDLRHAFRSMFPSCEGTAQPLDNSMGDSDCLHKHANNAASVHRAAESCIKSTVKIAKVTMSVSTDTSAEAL

[3] = target: T2, hCB1; assay: bioSensAll ebBRET signaling profiling, hCB1; type: cell-based; set-up: host or cells: HEK293SL cells, transient PEI transfection; conditions: for Gi1 hCB1 response: Gi1 biosensor; for Gi1 hCB1 / GoB hCB1: single replicate values, FigS6a; for EC50: read-out: EC50 [95% CI]; for Emax: normalized to CP-55,940
[4] = target: T1, CB1 (rCB1); assay: Radioligand competition binding, [3H]-CP-55,940, rat brain membranes

T1 sequence (P20272 whole entry): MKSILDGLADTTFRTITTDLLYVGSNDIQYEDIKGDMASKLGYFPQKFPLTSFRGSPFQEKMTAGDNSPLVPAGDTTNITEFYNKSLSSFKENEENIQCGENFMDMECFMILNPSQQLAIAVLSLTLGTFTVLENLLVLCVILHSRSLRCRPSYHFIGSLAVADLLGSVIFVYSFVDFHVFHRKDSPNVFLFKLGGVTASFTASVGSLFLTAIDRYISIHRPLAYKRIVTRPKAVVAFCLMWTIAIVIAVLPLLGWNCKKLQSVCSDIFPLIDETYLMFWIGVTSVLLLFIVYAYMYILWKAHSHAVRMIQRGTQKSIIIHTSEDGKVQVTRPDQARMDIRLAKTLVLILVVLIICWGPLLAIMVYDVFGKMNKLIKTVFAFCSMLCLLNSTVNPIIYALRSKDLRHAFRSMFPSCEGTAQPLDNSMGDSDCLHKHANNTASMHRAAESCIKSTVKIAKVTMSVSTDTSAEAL

Structure (SMILES): COC(=O)C(NC(=O)c1cc(C)n(-c2cccc(C(F)(F)F)c2)n1)c1cccs1 (stereo not shown) [‘60154]
- % 1H-CP-55,940 displacement (mean) from single point screen [1]: 97.23%
- EC50 [2]: 351 nM
- Lance Ultra cAMP pEC50 [2]: 6.5 [7.0]
- Emax ([2]; CHO): 67%
- normalised cAMP response, concentration-response (Figure2f), replicate values ([2]; M] -5): 47.6767 and 42.0056 and 42.3397
- normalised cAMP response, concentration-response (Figure2f), replicate values ([2]; M] -6): 18.5649 and 64.1261 and 62.9313 and 54.4312
- normalised cAMP response, concentration-response (Figure2f), replicate values ([2]; M] -7): 60.7575 and 85.7016 and 74.1727 and 91.7418
- normalised cAMP response, concentration-response (Figure2f), replicate values ([2]; M] -8): 71.1204 and 91.8821 and 99.3075 and 104.869
- normalised cAMP response, concentration-response (Figure2f), replicate values ([2]; M] -9): 80.377 and 105.423 and 95.8256 and 102.017
- normalised cAMP response, concentration-response (Figure2f), replicate values ([2]; M] -10): 87.3077 and 96.5214 and 96.3615 and 92.9435
- normalised cAMP response, concentration-response (Figure2f), replicate values ([2]; M] -11): 91.1852 and 100.567 and 97.003 and 102.336
- normalised cAMP response, concentration-response (Figure2f), replicate values ([2]; M] -12): 91.9633 and 106.344 and 93.1819 and 97.7717
- Gi1 hCB1 response ([3]; Log [Compound] (M) -4.22186): 135.687
- Gi1 hCB1 response ([3]; Log [Compound] (M) -4.63927): 128.615
- Gi1 hCB1 response ([3]; Log [Compound] (M) -5.05788): 93.8563
- Gi1 hCB1 response ([3]; Log [Compound] (M) -5.47381): 94.0353
- Gi1 hCB1 response ([3]; Log [Compound] (M) -5.89285): 102.272
- Gi1 hCB1 response ([3]; Log [Compound] (M) -6.31878): 90.7452
- Gi1 hCB1 response ([3]; Log [Compound] (M) -6.72585): 85.0156
- Gi1 hCB1 response ([3]; Log [Compound] (M) -7.14267): 90.8795
- Gi1 hCB1 response ([3]; Log [Compound] (M) -7.55284): 57.4417
- Gi1 hCB1 response ([3]; Log [Compound] (M) -8): 57.3074
- Gi1 hCB1 response ([3]; Log [Compound] (M) -8.22186): 41.0808
- Gi1 hCB1 response ([3]; Log [Compound] (M) -8.39794): 29.6663
- Gi1 hCB1 response ([3]; Log [Compound] (M) -8.68787): 9.254
- Gi1 hCB1 response ([3]; Log [Compound] (M) -9.15521): -1.31
- Gi1 hCB1 response ([3]; Log [Compound] (M) -9.61989): -12.1646
- Gi1 hCB1 response ([3]; Log [Compound] (M) -10.0969): 3.838
- Gi1 hCB1 response ([3]; Log [Compound] (M) -10.5529): 8.852
- Gi1 hCB1 response ([3]; Log [Compound] (M) -11.0177): -14.1566
- Gi1 hCB1 response ([3]; Log [Compound] (M) -11.4949): -8.897
- Gi1 hCB1 response ([3]; Log [Compound] (M) -11.9208): 6.613
- Gi1 hCB1 response ([3]; Log [Compound] (M) -12.3979): -8.651
- Gi1 hCB1 response ([3]; Log [Compound] (M) -12.8861): -7.89
- Gi1 hCB1 response ([3]; Log [Compound] (M) -13, individual replicate values): -1.847 and -6.9945
- Gi1 hCB1 ([3]; Log [Compound] (M) -4.22186): 97.0901
- GoB hCB1 ([3]; Log [Compound] (M) -4.22186): 92.7297
- Gi1 hCB1 ([3]; Log [Compound] (M) -4.63927): 95.1785
- GoB hCB1 ([3]; Log [Compound] (M) -4.63927): 96.2724
- Gi1 hCB1 ([3]; Log [Compound] (M) -5.05788): 93.4672
- GoB hCB1 ([3]; Log [Compound] (M) -5.05788): 98.1786
- Gi1 hCB1 ([3]; Log [Compound] (M) -5.47381): 90.2143
- GoB hCB1 ([3]; Log [Compound] (M) -5.47381): 107.08
- Gi1 hCB1 ([3]; Log [Compound] (M) -5.89285): 87.9019
- GoB hCB1 ([3]; Log [Compound] (M) -5.89285): 95.1574
- Gi1 hCB1 ([3]; Log [Compound] (M) -6.31878): 75.1986
- GoB hCB1 ([3]; Log [Compound] (M) -6.31878): 99.5993
- Gi1 hCB1 ([3]; Log [Compound] (M) -6.72585): 72.9632
- GoB hCB1 ([3]; Log [Compound] (M) -6.72585): 94.8877
- Gi1 hCB1 ([3]; Log [Compound] (M) -7.14267): 69.0474
- GoB hCB1 ([3]; Log [Compound] (M) -7.14267): 78.6487
- Gi1 hCB1 ([3]; Log [Compound] (M) -7.55284): 54.4325
- GoB hCB1 ([3]; Log [Compound] (M) -7.55284): 63.3449
- Gi1 hCB1 ([3]; Log [Compound] (M) -8): 27.0835
- GoB hCB1 ([3]; Log [Compound] (M) -8): 30.6512
- Gi1 hCB1 ([3]; Log [Compound] (M) -8.22186): 23.9076
- GoB hCB1 ([3]; Log [Compound] (M) -8.22186): 16.822
- Gi1 hCB1 ([3]; Log [Compound] (M) -8.39794): 14.1027
- GoB hCB1 ([3]; Log [Compound] (M) -8.39794): 15.743
- Gi1 hCB1 ([3]; Log [Compound] (M) -8.68787): 6.5794
- GoB hCB1 ([3]; Log [Compound] (M) -8.68787): 4.5753
- Gi1 hCB1 ([3]; Log [Compound] (M) -9.15521): 2.17
- GoB hCB1 ([3]; Log [Compound] (M) -9.15521): -0.7658
- Gi1 hCB1 ([3]; Log [Compound] (M) -9.61989): 0.08902
- GoB hCB1 ([3]; Log [Compound] (M) -9.61989): 0.7808
- Gi1 hCB1 ([3]; Log [Compound] (M) -10.0969): -0.8206
- GoB hCB1 ([3]; Log [Compound] (M) -10.0969): -0.1723
- Gi1 hCB1 ([3]; Log [Compound] (M) -10.5529): 0.8599
- GoB hCB1 ([3]; Log [Compound] (M) -10.5529): -2.762
- Gi1 hCB1 ([3]; Log [Compound] (M) -11.0177): 1.677
- GoB hCB1 ([3]; Log [Compound] (M) -11.0177): -1.018
- Gi1 hCB1 ([3]; Log [Compound] (M) -11.4949): 1.6461
- GoB hCB1 ([3]; Log [Compound] (M) -11.4949): -1.935
- Gi1 hCB1 ([3]; Log [Compound] (M) -11.9208): -0.003475
- GoB hCB1 ([3]; Log [Compound] (M) -11.9208): -0.2982
- Gi1 hCB1 ([3]; Log [Compound] (M) -12.3979): 0.3049
- GoB hCB1 ([3]; Log [Compound] (M) -12.3979): 0.619
- Gi1 hCB1 ([3]; Log [Compound] (M) -12.8861): 1.261
- GoB hCB1 ([3]; Log [Compound] (M) -12.8861): -2.69
- Gi1 hCB1 ([3]; Log [Compound] (M) -13): 0.459 and 0.9986
- GoB hCB1 ([3]; Log [Compound] (M) -13): -0.2622 and -1.953
- pEC50 [95% CI] ([3]; hCB1 Gi1): 7.6 [7.5 – 7.7]
- pEC50 [95% CI] ([3]; hCB1 GoB): 7.7 [7.7 – 7.8]
- pEC50 [95% CI] ([3]; hCB1 Gz): 7.8 [7.4 – 8.1]
- EC50 ([3]; hCB1 Gi1): 2.5 nM
- EC50 ([3]; hCB1 GoB): 18.4 nM
- EC50 ([3]; hCB1 Gz): 17.5 nM
- Emax ([3]; read-out: Emax [95% CI], hCB1 Gi1): 92%
- Emax ([3]; read-out: Emax [95% CI], hCB1 GoB): 100%
- Emax ([3]; read-out: Emax [95% CI], hCB1 Gz): 121%
- improvement in affinity (free energy) ([4]; CF3 replacing F, ‘51486 vs ‘60154): -1.7 kcal/mol
- LLE (lipophilic ligand efficiency) ([4]; LLE = pIC50 − clogP): 3.5
- binding free energy ΔG ([4]; from measured Ki): 10.0 kcal/mol
- LE (ligand efficiency) ([4]; from rCB1 affinity): 0.36
- pKi [95% CI] ([4]; rCB1): 7.4 [7.2 – 7.5]
- Ki ([4]; read-out: Ki [95% CI], rCB1, [3H]-CP-55,940): 44 nM and 44.3 nM
- fold improvement in CB1R affinity ([4]; vs parent hit or analog without the change): 17 fold
